For this assay, the target named is CETP (Homo sapiens (Human), UniProt P11597). Kind of assay: In vitro radioactive assay of CETP-catalyzed CE and TG transfer (RTA assay), 95% human serum. The assay is classed as biochemical. Particulars: RTA assay in 95% human serum; read-out: RTA IC50 (CETP Inhibition). The protocol:
In Vitro Radioactive Assays of CETP-Catalyzed CE and TG Transfer (RTA Assay)
Reagents and sources are: [3H] cholesteryl oleate (GE #TRK.886), [3H] Triolein (Perkin-Elmer NET-431), Butylated hydroxyl toluene (Aldrich, #D4740-4), DOPC (Sigma, # P6354), Sodium Bromide (Fisher scientific #S255-500), PEG 8000 (Fisher, #BP233-1), and human HDL (Intracel Corp #RP-036).
An in vitro assay for determining IC50's to identify compounds that inhibit CETP transfer activity is performed based on a modification of a published method (Morton and Zilversmit, (1981) A plasma inhibitor of triglyceride and cholesteryl ester transfer activities, J. Biol. Chem. 256(23), 11992-11995). The ability of inhibitors to alter CETP activity is performed using two different assays: one using recombinant CETP and one using an endogenous plasma source of CETP. Both assays measure the transfer of [3H] cholesteryl oleate or [3H] triolein from exogenous LDL to HDL.
Radiolabeled donor particles are generated by first combining 100 μl of 200 μM butylated hydroxyl toluene in CHCl3, 216 μL of 21.57 mM DOPC in EtOH, and either 500 μCi [3H]-triolein (Perkin Elmer #NET-431) or 500 μCi [3H]-cholesteryl oleate (GE #TRK886) in a glass tube. Reagents are mixed, dried under nitrogen, and then resuspended in 2 mL of 50 mM Tris, 27 μM EDTA at pH 7.4. After a brief vortex, the solution is sonicated until clear and mixed with 20 mL of fresh human serum. The mixture is incubated overnight at 37° C. The [3H] labeled LDL substrate is separated at 1.063 g/ml density by sequential ultracentrifugal flotation in NaBr according to the method by (Havel, Eder et al. 1955; Chapman, Goldstein et al. 1981). Once isolated the particles are dialyzed 3× in CETP buffer (50 mM Tris, pH 7.4, 100 mM NaCl, 1 mM EDTA). Human HDL is purchased from Intracel and used as the acceptor particles.
Transfer assays are performed in a 96 or 384-well v-bottom polypropylene plate. For the RTA using recombinant CETP (2% RTA), an assay cocktail is prepared with the final concentrations 128 μg/mL HDL, 20 nM rCETP, 2% human serum, and 1×CETP buffer. 1 μL of each test compound diluted in DMSO is added to 47 μL of assay cocktail per well and incubated at 37° C. for 1 hour. To initiate the transfer reaction, 2 μL radiolabeled LDL is added. After an additional 60 min of incubation at 37° C., the transfer action is terminated by precipitation of LDL with an equal volume of 20% W/V PEG 8000. The plates are centrifuged at 2000 rpm for 30 minutes at 4° C. A 40 μL aliquot of the HDL-containing supernatant is transferred to a Packard Optiplate™ with 200 μL of MicroScint™ 20. After mixing, plates are counted by liquid scintillation. Counts present in the supernatant for blanks (wells containing only HDL acceptor, CETP buffer and DMSO) are subtracted from those containing test compounds and used to correct for non-specific transfer.
For the transfer assay using endogenous CETP from serum (95% RTA), the same procedure is used except that human serum is added such that a final concentration of serum of 95% of the total assay volume is achieved, yielding a concentration of approximately 15 nM endogenous CETP in the assay. This is then combined with HDL and CETP buffer and the reaction proceeds as above and is terminated as described.
Comparison of the counts of samples with inhibitors to an uninhibited (DMSO only) positive control yield a percent inhibition. A plot of percent inhibition vs. log of inhibitor concentration, fit to a Sigmoidal 4 parameter equation is used to calculate IC50.
Starting materials are commercially available or are made using known procedures or as shown below. The examples may be synthesized using the general schemes provided below. The data reported for the examples below were obtained using the RTA assay in 95% human serum.

CETP, sequence (P11597 18-493 limits assumed): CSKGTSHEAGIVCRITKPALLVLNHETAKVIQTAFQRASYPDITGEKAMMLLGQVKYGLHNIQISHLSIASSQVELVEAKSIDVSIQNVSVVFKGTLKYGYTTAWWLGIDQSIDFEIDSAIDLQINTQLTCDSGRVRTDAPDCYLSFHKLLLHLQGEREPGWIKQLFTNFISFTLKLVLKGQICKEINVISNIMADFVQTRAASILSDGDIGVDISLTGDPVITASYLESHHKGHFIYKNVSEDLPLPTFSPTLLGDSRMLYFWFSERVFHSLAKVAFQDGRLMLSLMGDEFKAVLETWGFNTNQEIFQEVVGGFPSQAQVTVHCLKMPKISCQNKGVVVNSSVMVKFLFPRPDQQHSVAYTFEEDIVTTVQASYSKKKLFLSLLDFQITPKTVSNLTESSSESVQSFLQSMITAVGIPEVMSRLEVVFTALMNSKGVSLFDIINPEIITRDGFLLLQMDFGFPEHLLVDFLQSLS

As to `COc1ncc(-c2c(C)cc(-c3n[nH]c(=O)o3)cc2C)cc1-c1cnc(N2CC(F)C2)nc1CN1C(=O)O[C@H](c2cc(C(F)(F)F)cc(C(F)(F)F)c2)[C@@H]1C` [Example 33, 5-(4-{5-[4-({(4S,5R)-5-[3,5-Bis(trifluoromethyl)phenyl]-4-methyl-2-oxo-1,3-oxazolidin-3-yl}methyl)-2-(3-fluoroazetidin-1-yl)pyrimidin-5-yl]-6-methoxypyridin-3-yl}-3,5-dimethylphenyl)-1,3,4-oxadiazol-2(3H)-one], the IC50 worked out at 8 nM. For `COc1ncc(-c2c(C)cc(C(=O)O)cc2C)cc1-c1cnc(N2CCOCC2)nc1CN1C(=O)O[C@H](c2cc(C(F)(F)F)cc(C(F)(F)F)c2)[C@@H]1C` [Example 34, 4-{5-[4-({(4S,5R)-5-[3,5-Bis(trifluoromethyl)phenyl]-4-methyl-2-oxo-1,3-oxazolidin-3-yl}methyl)-2-(morpholin-4-yl)pyrimidin-5-yl]-6-methoxypyridin-3-yl}-3,5-dimethylbenzoic acid], the IC50 came to 10 nM. Under `COc1ncc(-c2c(C)cc(-c3n[nH]c(=O)o3)cc2C)cc1-c1cnc(N2CCOCC2)nc1CN1C(=O)O[C@H](c2cc(C(F)(F)F)cc(C(F)(F)F)c2)[C@@H]1C` [Example 35, 5-(4-{5-[4-({(4S,5R)-5-[3,5-Bis(trifluoromethyl)phenyl]-4-methyl-2-oxo-1,3-oxazolidin-3-yl}methyl)-2-(morpholin-4-yl)pyrimidin-5-yl]-6-methoxypyridin-3-yl}-3,5-dimethylphenyl)-1,3,4-oxadiazol-2(3H)-one] stands 10 nM; under `COc1ncc(-c2ccc(C(=O)O)cc2C)cc1-c1cnc(N2CC(F)C2)nc1CN1C(=O)O[C@H](c2cc(C(F)(F)F)cc(C(F)(F)F)c2)[C@@H]1C` [Example 36, 4-{5-[4-({(4S,5R)-5-[3,5-Bis(trifluoromethyl)phenyl]-4-methyl-2-oxo-1,3-oxazolidin-3-yl}methyl)-2-(3-fluoroazetidin-1-yl)pyrimidin-5-yl]-6-methoxypyridin-3-yl}-3-methylbenzoic acid], 12 nM. Turning to `COc1ncc(-c2ccc(C(=O)Nc3nnn[nH]3)cc2C)cc1-c1cnc(N2CC(F)C2)nc1CN1C(=O)O[C@H](c2cc(C(F)(F)F)cc(C(F)(F)F)c2)[C@@H]1C` [Example 37, 4-{5-[4-({(4S,5R)-5-[3,5-Bis(trifluoromethyl)phenyl]-4-methyl-2-oxo-1,3-oxazolidin-3-yl}methyl)-2-(3-fluoroazetidin-1-yl)pyrimidin-5-yl]-6-methoxypyridin-3-yl}-3-methyl-N-(1H-tetrazol-5-yl)benzamide], the IC50 amounted to 10 nM. With `COc1ncc(-c2ccc(-c3n[nH]c(=O)o3)cc2C)cc1-c1cnc(N2CC(F)C2)nc1CN1C(=O)O[C@H](c2cc(C(F)(F)F)cc(C(F)(F)F)c2)[C@@H]1C` [Example 38, 5-(4-{5-[4-({(4S,5R)-5-[3,5-Bis(trifluoromethyl)phenyl]-4-methyl-2-oxo-1,3-oxazolidin-3-yl}methyl)-2-(3-fluoroazetidin-1-yl)pyrimidin-5-yl]-6-methoxypyridin-3-yl}-3-methylphenyl)-1,3,4-oxadiazol-2(3H)-one] the figure was 12 nM. Under `COc1ncc(-c2ccc(C(=O)O)cc2C)cc1-c1cnc(N2CCOCC2)nc1CN1C(=O)O[C@H](c2cc(C(F)(F)F)cc(C(F)(F)F)c2)[C@@H]1C` [Example 39, 4-{5-[4-({(4S,5R)-5-[3,5-Bis(trifluoromethyl)phenyl]-4-methyl-2-oxo-1,3-oxazolidin-3-yl}methyl)-2-(morpholin-4-yl)pyrimidin-5-yl]-6-methoxypyridin-3-yl}-3-methylbenzoic acid] stands 13 nM. Under `COc1ncc(-c2ccc(-c3n[nH]c(=O)o3)cc2C)cc1-c1cnc(N2CCOCC2)nc1CN1C(=O)O[C@H](c2cc(C(F)(F)F)cc(C(F)(F)F)c2)[C@@H]1C` [Example 40, 5-(4-{5-[4-({(4S,5R)-5-[3,5-Bis(trifluoromethyl)phenyl]-4-methyl-2-oxo-1,3-oxazolidin-3-yl}methyl)-2-(morpholin-4-yl)pyrimidin-5-yl]-6-methoxypyridin-3-yl}-3-methylphenyl)-1,3,4-oxadiazol-2(3H)-one] stands 29 nM; under `COc1ncc(-c2ccc(C(=O)Nc3nnn[nH]3)cc2C)cc1-c1cnc(N2CCOCC2)nc1CN1C(=O)O[C@H](c2cc(C(F)(F)F)cc(C(F)(F)F)c2)[C@@H]1C` [Example 41, 4-{5-[4-({(4S,5R)-5-[3,5-Bis(trifluoromethyl)phenyl]-4-methyl-2-oxo-1,3-oxazolidin-3-yl}methyl)-2-(morpholin-4-yl)pyrimidin-5-yl]-6-methoxypyridin-3-yl}-3-methyl-N-(1H-tetrazol-5-yl)benzamide], 11 nM. For `COc1ncc(-c2ccc(C(=O)O)cc2C)cc1-c1cnc(N2CC(F)(F)C2)nc1CN1C(=O)O[C@H](c2cc(C(F)(F)F)cc(C(F)(F)F)c2)[C@@H]1C` [Example 42, 4-{5-[4-({(4S,5R)-5-[3,5-Bis(trifluoromethyl)phenyl]-4-methyl-2-oxo-1,3-oxazolidin-3-yl}methyl)-2-(3,3-difluoroazetidin-1-yl)pyrimidin-5-yl]-6-methoxypyridin-3-yl}-3-methylbenzoic acid], the IC50 came to 9 nM.

Regarding `COc1ncc(-c2ccc(C(=O)O)cc2C)cc1-c1cnc(-n2ccnc2)nc1CN1C(=O)O[C@H](c2cc(C(F)(F)F)cc(C(F)(F)F)c2)[C@@H]1C` [Example 43, 4-{5-[4-({(4S,5R)-5-[3,5-Bis(trifluoromethyl)phenyl]-4-methyl-2-oxo-1,3-oxazolidin-3-yl}methyl)-2-(1H-imidazol-1-yl)pyrimidin-5-yl]-6-methoxypyridin-3-yl}-3-methylbenzoic acid], the IC50 came to 109 nM. With `COc1ncc(-c2ccc(C(=O)O)cc2C)cc1-c1cnc(N2CC(F)C2)nc1CN1C(=O)O[C@H](c2cc(F)cc(F)c2)[C@@H]1C` [Example 44, 4-{5-[4-{[(4S,5R)-5-(3,5-Difluorophenyl)-4-methyl-2-oxo-1,3-oxazolidin-3-yl]methyl}-2-(3-fluoroazetidin-1-yl)pyrimidin-5-yl]-6-methoxypyridin-3-yl}-3-methylbenzoic acid] the figure was 35 nM. With `COc1ncc(-c2ccc(C(=O)O)cc2C)cc1-c1cnc(N2CC(F)C2)nc1CN1C(=O)O[C@H](c2cccc(OC(F)(F)F)c2)[C@@H]1C` [Example 45, 4-{5-[2-(3-Fluoroazetidin-1-yl)-4-({(4S,5R)-4-methyl-2-oxo-5-[3-(trifluoromethoxy)phenyl]-1,3-oxazolidin-3-yl}methyl)pyrimidin-5-yl]-6-methoxypyridin-3-yl}-3-methylbenzoic acid] the figure was 50 nM; with `COc1ncc(-c2ccc(C(=O)O)cc2C)cc1-c1cnc(N2CC(F)C2)nc1CN1C(=O)O[C@H](c2cc(F)cc(C(F)(F)F)c2)[C@@H]1C` [Example 46, 4-{5-[2-(3-Fluoroazetidin-1-yl)-4-({(4S,5R)-5-[3-fluoro-5-(trifluoromethyl)phenyl]-4-methyl-2-oxo-1,3-oxazolidin-3-yl}methyl)pyrimidin-5-yl]-6-methoxypyridin-3-yl}-3-methylbenzoic acid], 12 nM. With `COc1ncc(-c2ccc(C(=O)O)cc2C)cc1-c1cnc(N2CC(F)(F)C2)nc1CN1C(=O)O[C@H](c2cc(F)cc(C(F)(F)F)c2)[C@@H]1C` [Example 47, 4-{5-[2-(3,3-Difluoroazetidin-1-yl)-4-({(4S,5R)-5-[3-fluoro-5-(trifluoromethyl)phenyl]-4-methyl-2-oxo-1,3-oxazolidin-3-yl}methyl)pyrimidin-5-yl]-6-methoxypyridin-3-yl}-3-methylbenzoic acid] the figure was 9 nM.

By IC50 is commonly meant the concentration at which inhibition is half-maximal.

These data come from patent US9353101B2 (Merck Sharp & Dohme Corp., priority 2012, dated 2016).
